In US8735414B2 (priority 2009, dated 2014):

Key:
[1] = tested on: bicistronic HCV replicon (replicon RNA, GenBank Accession No. AJ242654); assay: HCV Replicon Assay; format: cell-based; settings: Hepatitis C virus, 72 h, read-out: Replicon IC50

Row | SMILES | IC50 [1] | melting point
1 | N#Cc1c(-c2ccc(S(=O)(=O)NC(CF)CF)cn2)n(C2CCC2)c2cc(C3CC3)c(F)cc12 [compound 107, 6-(3-cyano-1-cyclobutyl-6-cyclopropyl-5-fluoro-1H-indol-2-yl)-N-(1,3-difluoropropan-2-yl)pyridine-3-sulfonamide] | < 500 nM | 182 to 186 °C
2 | Cc1cc2c(C#N)c(-c3ccc(S(=O)(=O)N[C@@H](C)C(F)(F)F)cn3)n(-c3ncccn3)c2cc1F [compound 901, 6-[3-cyano-6-fluoro-5-methyl-1-(pyrimidin-2-yl)-1H-indol-2-yl]-N-[(2S)-1,1,1-trifluoropropan-2-yl]pyridine-3-sulfonamide] | < 500 nM | 125 to 130 °C
3 | Cc1cc2c(cc1Cl)c(C#N)c(-c1ncc(S(=O)(=O)NC(CF)CF)cn1)n2C1CCC1 [compound 447, 2-(5-chloro-3-cyano-1-cyclobutyl-6-methyl-1H-indol-2-yl)-N-(1,3-difluoropropan-2-yl)pyrimidine-5-sulfonamide] | < 500 nM | 275 to 279 °C
4 | CC(C)(NS(=O)(=O)c1ccc(-c2c(C(N)=O)c3cc(F)c(C4CC4)cc3n2C2CCCC2)nc1)C(F)(F)F [compound 850, 1-cyclopentyl-6-cyclopropyl-5-fluoro-2-{5-[(1,1,1-trifluoro-2-methylpropan-2-yl)sulfamoyl]pyridin-2-yl}-1H-indole-3-carboxamide] | < 500 nM | 236 to 237 °C
5 | C[C@@H](NS(=O)(=O)c1ccc(-c2c(C#N)c3cc(F)ccc3n2C2CCCC2)nc1)C(F)(F)F [compound 220, 6-(3-cyano-1-cyclopentyl-5-fluoro-1H-indol-2-yl)-N-[(2R)-1,1,1-trifluoropropan-2-yl]pyridine-3-sulfonamide] | < 500 nM | 158 to 160 °C
6 | Cc1cc2c(cc1F)c(C#N)c(-c1ccc(S(=O)(=O)N[C@H](C)C(F)(F)F)cn1)n2C1CCC1 [compound 609, 6-(3-cyano-1-cyclobutyl-5-fluoro-6-methyl-1H-indol-2-yl)-N-[(2R)-1,1,1-trifluoropropan-2-yl]pyridine-3-sulfonamide] | < 500 nM | 211 to 214 °C
7 | CC(C)(NS(=O)(=O)c1ccc(-c2c(C#N)c3ccc(OC(F)F)cc3n2-c2ccc(F)cc2)nc1)C(F)(F)F [compound 687, 6-[3-cyano-6-(difluoromethoxy)-1-(4-fluorophenyl)-1H-indol-2-yl]-N-(1,1,1-trifluoro-2-methylpropan-2-yl)pyridine-3-sulfonamide] | < 500 nM | 215 to 216 °C
8 | Cc1cc2c(C#N)c(-c3ncc(S(=O)(=O)NC(C)C)cn3)n(C3CCC3)c2cc1Cl [compound 507, 2-(6-chloro-3-cyano-1-cyclobutyl-5-methyl-1H-indol-2-yl)-N-(propan-2-yl)pyrimidine-5-sulfonamide] | 500 to 2000 nM | 217 to 218 °C
9 | Cc1cc2c(cc1F)c(C#N)c(-c1ccc(S(=O)(=O)NC(C)(C)C(F)(F)F)cn1)n2C1CCCC1 [compound 681, 6-(3-cyano-1-cyclopentyl-5-fluoro-6-methyl-1H-indol-2-yl)-N-(1,1,1-trifluoro-2-methylpropan-2-yl)pyridine-3-sulfonamide] | < 500 nM | 223 to 225 °C
10 | CCc1cc2c(cc1F)c(C#N)c(-c1ccc(S(=O)(=O)N[C@@H](C)C(F)(F)F)cn1)n2-c1cc(OC)ccn1 [compound 955, 6-[3-cyano-6-ethyl-5-fluoro-1-(4-methoxypyridin-2-yl)-1H-indol-2-yl]-N-[(2S)-1,1,1-trifluoropropan-2-yl]pyridine-3-sulfonamide] | < 500 nM | 227 to 233 °C
11 | Cc1cc2c(C(N)=O)c(-c3ccc(S(=O)(=O)N[C@@H](C)C(F)(F)F)cn3)n(-c3ncccn3)c2cc1F [compound 918, 6-fluoro-5-methyl-1-(pyrimidin-2-yl)-2-(5-{[(2S)-1,1,1-trifluoropropan-2-yl]sulfamoyl}pyridin-2-yl)-1H-indole-3-carboxamide] | 2000 to 5000 nM | 245 to 249 °C
12 | Cc1ccc2c(c1)c(C#N)c(-c1ncc(S(=O)(=O)NC(C)C)cn1)n2C1CCCC1 [compound 159, 2-(3-cyano-1-cyclopentyl-5-methyl-1H-indol-2-yl)-N-(propan-2-yl)pyrimidine-5-sulfonamide] | < 500 nM | 193 to 198 °C
13 | Cc1cc2c(cc1F)c(C#N)c(-c1ccc(S(=O)(=O)N[C@@H](C)C(F)(F)F)cn1)n2-c1ncc(Cl)cn1 [compound 914, 6-[1-(5-chloropyrimidin-2-yl)-3-cyano-5-fluoro-6-methyl-1H-indol-2-yl]-N-[(2S)-1,1,1-trifluoropropan-2-yl]pyridine-3-sulfonamide] | < 500 nM | 213 to 218 °C
14 | Cc1cc2c(cc1F)c(C#N)c(-c1ccc(S(=O)(=O)N[C@@H](C)C(F)(F)F)cn1)n2-c1cnccn1 [compound 817, 6-[3-cyano-5-fluoro-6-methyl-1-(pyrazin-2-yl)-1H-indol-2-yl]-N-[(2S)-1,1,1-trifluoropropan-2-yl]pyridine-3-sulfonamide] | < 500 nM | 220 to 223 °C
15 | CCc1ccc2c(c1)c(C#N)c(-c1ccc(S(=O)(=O)N[C@@H](C)C(F)(F)F)cn1)n2C1CCCC1 [compound 374, 6-(3-cyano-1-cyclopentyl-5-ethyl-1H-indol-2-yl)-N-[(2S)-1,1,1-trifluoropropan-2-yl]pyridine-3-sulfonamide] | < 500 nM | 159.5 to 160.5 °C
16 | CC(C)n1c(-c2ccc(S(=O)(=O)N[C@H](C)C(F)(F)F)cn2)c(C#N)c2ccc(OC(F)F)cc21 [compound 194, 6-[3-cyano-6-(difluoromethoxy)-1-(propan-2-yl)-1H-indol-2-yl]-N-[(2R)-1,1,1-trifluoropropan-2-yl]pyridine-3-sulfonamide] | < 500 nM | 166 to 168 °C
17 | CC(C)NS(=O)(=O)c1cnc(-c2c(C#N)c3cc(F)ccc3n2C(C)C)nc1 [compound 123, 2-[3-cyano-5-fluoro-1-(propan-2-yl)-1H-indol-2-yl]-N-(propan-2-yl)pyrimidine-5-sulfonamide] | < 500 nM | 192 to 197 °C
18 | C[C@H](NS(=O)(=O)c1ccc(-c2c(C#N)c3cc(F)c(C4CC4)cc3n2-c2ccccn2)nc1)C(F)(F)F [compound 819, 6-[3-cyano-6-cyclopropyl-5-fluoro-1-(pyridin-2-yl)-1H-indol-2-yl]-N-[(2S)-1,1,1-trifluoropropan-2-yl]pyridine-3-sulfonamide] | < 500 nM | 220 to 223 °C
19 | Cc1cc2c(cc1F)c(C#N)c(-c1ncc(S(=O)(=O)N[C@@H](C)C(F)(F)F)cc1C)n2-c1ccccn1 [compound 889, 6-[3-cyano-5-fluoro-6-methyl-1-(pyridin-2-yl)-1H-indol-2-yl]-5-methyl-N-[(2S)-1,1,1-trifluoropropan-2-yl]pyridine-3-sulfonamide] | < 500 nM | 197 to 202 °C
20 | Cc1cc2c(cc1F)c(C#N)c(-c1ccc(S(=O)(=O)N[C@H](C)C(F)(F)F)cn1)n2-c1ccccn1 [compound 698, 6-[3-cyano-5-fluoro-6-methyl-1-(pyridin-2-yl)-1H-indol-2-yl]-N-[(2R)-1,1,1-trifluoropropan-2-yl]pyridine-3-sulfonamide] | < 500 nM | 170 to 174 °C
